Test results taken from patent US20130030282A1, “SYNTHESIS AND CHARACTERIZATION OF NEAR IR FLUORESCENT MAGNETIC AND NON-MAGNETIC ALBUMIN NANOPARTICLES FOR BIOMEDICAL APPLICATIONS” (BAR ILAN UNIVERSITY, priority 2011, published 2013).

Experiment: Stability against photobleaching of free CANIR and NIR fluorescent nanoparticles
Assay type: physicochemical
Conditions: illuminated continuously with a Xenon flash lamp for 20 minutes; λex 800 nm, λem 830 nm; intensity normalized
Description: Photobleaching is the irreversible light-induced destruction of the fluorophore, affected by factors such as oxygen, oxidizing or reducing agents, temperature, exposure time and illumination levels. For photobleaching experiments, the samples were diluted to 0.05M and λex was set at 800 nm and λem at 830 nm. Each of the samples was illuminated continuously, and fluorescence intensity was measured over a period of 20 minutes. The intensity values were normalized.
Photobleaching experiments were performed for the free CANIR dye and the CANIR-HSA nanoparticles, in order to examine their photostabillity. For the photobleaching experiments, the samples were diluted to 0.05M and λex was set at 800 nm and λem at 830 nm. Each of the samples was illuminated continuously, and fluorescence intensity was measured over a period of 20 minutes. Intensity values were normalized. […] The encapsulation of the dye probably protects the dye against reactive oxygen species thereby reducing the photobleaching.
FIG. 2 depicts the photostability of the CANIR-HSA nanoparticles (A) and free CANIR (B) as a function of time. Samples of CANIR containing HSA nanoparticles and free CANIR were illuminated with a Xenon flash lamp for 20 minutes as described above.

SMILES: CC1(C)C(=CC=C2CCCC(C=CC3=[N+](CCCCS(=O)(=O)[O-])c4ccccc4C3(C)C)=C2Sc2ccc(C(=O)O)cc2)N(CCCCS(=O)(=O)[O-])c2ccccc21.[Na+] [free CANIR]
- fluorescence intensity during illumination (photostability): decreases significantly
